Data: patent US11957684B2, “Treatment of heavy menstrual bleeding associated with uterine fibroids” (Sumitomo Pharma Switzerland GmbH, priority 2016, dated 2024)

Assays:
Format in all cases: in vivo, human
[1] = Example 4: pharmacodynamics (serum hormones, urine 6β-hydroxycortisol to cortisol ratio); settings: in vivo
Text: (§1) Descriptive statistics were used to summarize pharmacodynamic parameters: serum concentrations of estradiol (E2), FSH, LH, progesterone, growth hormone (GH), prolactin (PRL), thyrotropin, adrenocorticotropic hormone (ACTH) and urine 6β-hydroxycortisol to cortisol ratios (Q).

[2] = system: estradiol (E2), FSH, LH, progesterone; assay: as above; settings: 10 mg to 40 mg QD
Text: as §1

[3] = system: LH, FSH, estradiol (E2), progesterone (P); assay: Example 5A: serum LH, FSH, E2, P
Protocol: At Visit 3, blood was drawn twice, at 0.5 to 1.5 hours postdose and at 2 to 5 hours postdose, from each evaluable subject. At Visits 4, 5 and 6, blood was drawn once immediately prior to the dose for each day, and again at 0.5 to 1.5 hours postdose and at 2 to 5 hours postdose, from each evaluable subject. Blood was drawn only once for patients who took the study drug for the day before visiting the investigational site. At Visit 7, blood was drawn only once at the visit.

[4] = system: healthy pre-menopausal women; assay: Example 9: pharmacodynamics, menstruation, hot flash diary, bone resorption markers; settings: last 28 days of treatment
Text: Methods: This was a 6-week phase 1, randomized, open-label, parallel-group, study conducted at 4 sites in the US. […] The first day of dosing occurred on Day 1 to 6 of the menstrual cycle. Hormonal preparations were prohibited for at least 3 months prior to screening. […] Vasomotor symptoms were captured using a daily diary (from screening until follow-up).

In the case of `CONC(=O)Nc1ccc(-c2sc3c(c2CN(C)C)c(=O)n(-c2ccc(OC)nn2)c(=O)n3Cc2c(F)cccc2F)cc1` [Compound 1, N-(4-(1-(2,6-difluorobenzyl)-5-((dimethylamino)methyl)-3-(6-methoxy-3-pyridazinyl)-2,4-dioxo-1,2,3,4-tetrahydrothieno[2,3-d]pyrimidin-6-yl)phenyl)-N′-methoxyurea], the “effect on endogenous GH, PRL, thyrotropin, and ACTH” value [1] is reported as “no apparent effect”, the “ovulation (post-ovulation progesterone increase)” value [2] is reported as “prevented ovulation” and the “median serum E2” value ([3]; 10 mg, Week 2) is reported as 82.5 pg/mL. For the same compound, the “median serum FSH” value ([3]; 10 mg, Week 2) was 5.990 mIU/mL, the “median serum LH” value ([3]; 10 mg, Week 2) was 3.815 mIU/mL and the “median serum P” value ([3]; 10 mg, Week 2) was 0.315 ng/mL. For the same compound, the “median serum E2” value ([3]; 10 mg, Week 4) was 58.0 pg/mL, the “median serum FSH” value ([3]; 10 mg, Week 4) was 5.225 mIU/mL and the “median serum LH” value ([3]; 10 mg, Week 4) was 2.565 mIU/mL. The “median serum P” value ([3]; 10 mg, Week 4) was 0.440 ng/mL, the “median serum E2” value ([3]; 10 mg, Week 8) was 52.0 pg/mL and the “median serum FSH” value ([3]; 10 mg, Week 8) was 6.150 mIU/mL. The “median serum LH” value ([3]; 10 mg, Week 8) was 3.460 mIU/mL, the “median serum P” value ([3]; 10 mg, Week 8) was 0.360 ng/mL and the “median change in serum E2 from baseline” value ([3]; 10 mg, Week 12) was 0.0 pg/mL. For the same compound, the “median change in serum FSH from baseline” value ([3]; 10 mg, Week 12) was −1.060 mIU/mL, the “median change in serum LH from baseline” value ([3]; 10 mg, Week 12) was 0.420 mIU/mL and the “median change in serum P from baseline” value ([3]; 10 mg, Week 12) was 0.080 ng/mL. The “median serum E2” value ([3]; 10 mg, Week 12) was 57.0 pg/mL, the “median serum FSH” value ([3]; 10 mg, Week 12) was 6.200 mIU/mL and the “median serum LH” value ([3]; 10 mg, Week 12) was 3.550 mIU/mL. The “median serum P” value ([3]; 10 mg, Week 12) was 0.410 ng/mL, the “median serum E2” value ([3]; 20 mg, Week 2) was 25.0 pg/mL and the “median serum FSH” value ([3]; 20 mg, Week 2) was 5.705 mIU/mL. The “median serum LH” value ([3]; 20 mg, Week 2) was 2.520 mIU/mL, the “median serum P” value ([3]; 20 mg, Week 2) was 0.235 ng/mL and the “median serum E2” value ([3]; 20 mg, Week 4) was 23.5 pg/mL. The “median serum FSH” value ([3]; 20 mg, Week 4) was 4.660 mIU/mL, the “median serum LH” value ([3]; 20 mg, Week 4) was 1.750 mIU/mL and the “median serum P” value ([3]; 20 mg, Week 4) was 0.270 ng/mL. For the same compound, the “median serum E2” value ([3]; 20 mg, Week 8) was 16.0 pg/mL, the “median serum FSH” value ([3]; 20 mg, Week 8) was 4.840 mIU/mL and the “median serum LH” value ([3]; 20 mg, Week 8) was 2.260 mIU/mL. For the same compound, the “median serum P” value ([3]; 20 mg, Week 8) was 0.250 ng/mL, the “median change in serum E2 from baseline” value ([3]; 20 mg, Week 12) was -18.5 pg/mL and the “median change in serum FSH from baseline” value ([3]; 20 mg, Week 12) was −0.720 mIU/mL. For the same compound, the “median change in serum LH from baseline” value ([3]; 20 mg, Week 12) was −0.895 mIU/mL, the “median change in serum P from baseline” value ([3]; 20 mg, Week 12) was -0.090 ng/mL and the “median serum E2” value ([3]; 20 mg, Week 12) was 13.0 pg/mL. For the same compound, the “median serum FSH” value ([3]; 20 mg, Week 12) was 5.710 mIU/mL, the “median serum LH” value ([3]; 20 mg, Week 12) was 2.685 mIU/mL and the “median serum P” value ([3]; 20 mg, Week 12) was 0.250 ng/mL. For the same compound, the “median serum FSH” value ([3]; 40 mg, Week 2) was 4.280 mIU/mL, the “median serum LH” value ([3]; 40 mg, Week 2) was 0.720 mIU/mL and the “median serum P” value ([3]; 40 mg, Week 2) was 0.230 ng/mL. The “median serum E2” value ([3]; 40 mg, Week 4) was 0.0 pg/mL, the “median serum FSH” value ([3]; 40 mg, Week 4) was 3.710 mIU/mL and the “median serum LH” value ([3]; 40 mg, Week 4) was 0.550 mIU/mL. For the same compound, the “median serum P” value ([3]; 40 mg, Week 4) was 0.240 ng/mL, the “median serum E2” value ([3]; 40 mg, Week 8) was 0.0 pg/mL and the “median serum FSH” value ([3]; 40 mg, Week 8) was 3.210 mIU/mL. The “median serum LH” value ([3]; 40 mg, Week 8) was 0.570 mIU/mL, the “median serum P” value ([3]; 40 mg, Week 8) was 0.220 ng/mL and the “median change in serum E2 from baseline” value ([3]; 40 mg, Week 12) was -35.0 pg/mL. For the same compound, the “median change in serum FSH from baseline” value ([3]; 40 mg, Week 12) was −3.180 mIU/mL, the “median change in serum LH from baseline” value ([3]; 40 mg, Week 12) was −2.760 mIU/mL and the “median change in serum P from baseline” value ([3]; 40 mg, Week 12) was -0.060 ng/mL. The “median serum E2” value ([3]; 40 mg, Week 12) was 0.0 pg/mL, the “median serum FSH” value ([3]; 40 mg, Week 12) was 2.950 mIU/mL and the “median serum LH” value ([3]; 40 mg, Week 12) was 0.650 mIU/mL. The “median serum P” value ([3]; 40 mg, Week 12) was 0.250 ng/mL and the No bleeding [4] was 18 (72.0%) n (%).
